In patent publication US7371734B2, “Oligonucleotide compositions and their use for the modulation of immune responses” (Bioniche Life Sciences Inc., priority 2002, dated 2008):
Marks after values point to notes of the source that are not given here.

Experiments:
Type in all cases: cell-based
Human dendritic cells [1] = experiment: Induction of IL-12 by sequences plus GM-CSF (ELISA); conditions: 100 μg, 48 hours
Experimental: (§1) Human dendritic cells were obtained from Clonetics (San Diego, Calif., USA) and were cultured in the medium recommended by Clonetics. DC were obtained from three different individuals (see Table 1). Major histocompatability typing was performed on each of these individuals and several of the HLA (human leukocyte antigens) types are shown.
DC from the individual B were seeded in 1.0 ml at 1.0×10^5 cells/ml in 6-well flat-bottomed tissue culture plates for 48 hours with 500 units of human recombinant GM-CSF (Clonetics) and 100 μg of 6 base polynucleotide N1A or polynucleotide N7A. Production of IL-12 was determined in 100 μl of culture supernatant using a commercial ELISA (BioSource) after 48 hours of incubation. Results are expressed as the “fold” (x) increase in IL-12 production by treated DC compared to control cells in absence or presence of recombinant GM-CSF.

Human dendritic cells [2] = experiment: Induction of IL-12 production by DC (ELISA); conditions: 100 μg, 48 hours
Experimental: as §1
DC were seeded in 1.0 ml at 1.0×10^5 cells/ml in 6-well flat-bottomed tissue culture plates for 48 hours with 100 μg of 6 base N1A, N1B, N2A, N2B, N3A, N3B, N4A, N4B, N5A, N5B, N6A, N6B, N7A or N7B polynucleotides. Production of IL-12 was determined in 100 μl of culture supernatant using a commercial ELISA (BioSource) after 48 hours of incubation. Results are expressed as the “fold” (x) increase in IL-12 production by treated DC compared to control cells.

Human dendritic cells [3] = experiment: Induction of IFN-gamma production by DC (ELISA); conditions: 100 μg, 48 hours
Experimental: as §1
DC were seeded in 1.0 ml at 1.0×10^5 cells/ml in 6-well flat-bottomed tissue culture plates for 48 hours with 100 μg of6 base N1A, N1B, N2A, N2B, N3A, N3B, N4A, N4B, N5A, N5B, N6A, N6B, N7A or N7B polynucleotides. Production of IFN-gamma was determined in 100 μl of culture supernatant using a commercial ELISA (BioSource) after 48 hours of incubation. Results are expressed as the “fold” (x) increase in IFN-gamma production by treated DC compared to control cells.

Human dendritic cells [4] = experiment: MHC-II levels at the DC cell surface (flow cytometry); conditions: DC from individual B; 100 μg, 48 hours
Experimental: as §1
DC from individual B were seeded in 1.0 ml at 1.0×10^5 cells/ml in 6-well flat-bottomed tissue culture plates for 48 hours with 100 μg of 6 base N1A, N1B, N2A, N2B, N3A, N3B, N5A, N5B, N6A, N6B, N7A or N7B polynucleotides. The level of MHC II at the cell surface was determined after 48 hours of incubation by flow cytometry using a FITC-conjugated monoclonal antibody directed to MHC II (Serotec) and analyzed by CELLQuest Pro. Results are expressed as the percentage of MHC II^hi DC following treatment.

Human dendritic cells [5] = experiment: CD40 levels at the DC cell surface (flow cytometry); conditions: 100 μg, 48 hours
Experimental: as §1
DC from individuals B and C were seeded in 1.0 ml at 1.0×10^5 cells/ml in 6-well flat-bottomed tissue culture plates for 48 hours with 100 μg of 6 base N1A, N1B, N2A, N2B, N3A, N3B, N4A, N4B, N5A, N5B, N6A, N6B, N7A or N7B polynucleotides. The level of CD40 at the cell surface was determined after 48 hours of incubation by flow cytometry (FACSCalibur system) using a FITC-conjugated monoclonal antibody directed to CD40 and analyzed by CELLQuest Pro (all from Becton Dickinson). Results are expressed as the percentage of CD40^hi DC following treatment. The term “CD40^hi” refers to a population of cells identified by flow cytometry as having higher than baseline expression of CD40.

Human dendritic cells [6] = experiment: CD80 levels at the DC cell surface (flow cytometry); conditions: 100 μg, 48 hours
Experimental: as §1
DC from individuals B and C were seeded in 1.0 ml at 1.0×10^5 cells/ml in 6-well flat-bottomed tissue culture plates for 48 hours with 100 μg of 6 base N1A, N1B, N2A, N2B, N3A, N3B, N4A, N4B, N5A, N5B, N6A, N6B, N7A or N7B polynucleotides. The level of CD80 at the cell surface was determined after 48 hours of incubation by flow cytometry using a FITC-conjugated monoclonal antibody directed to CD80 (Serotec, Oxford, U.K.) and analyzed by CELLQuest. Results are expressed as the percentage of CD80^hi DC following treatment.

Human dendritic cells [7] = experiment: Increase in cell size and granularity of DC (flow cytometry); conditions: 100 μg polynucleotide, 48 hours
Experimental: as §1
DC were seeded in 1.0 ml at 1.0×10^5 cells/ml in 6-well flat-bottomed tissue culture plates for 48 hours with 100 μg of 6 base N1A, N1B, N2A, N2B, N3A, N3B, N4A, N4B, N5A, N5B, N6A, N6B, N7A or N7B polynucleotides. Cell size (FCS: forward side scatter) and granularity (S SC: side light scatter) were determined by flow cytometry using a FACSCalibur and analyzed using the CELLQuest Pro software (both from Becton-Dickinson, San Diego, Calif., USA). Percentage of DC showing a FCS>500 units and a SSC>400 units have been determined after treatment with 3-OH, 5-OH polynucleotides for DC isolated from three different individuals.

Human dendritic cells [8] = experiment: Induction of IL-1beta production by DC (ELISA); conditions: 100 μg, 48 hours
Experimental: as §1
DC were seeded in 1.0 ml at 1.0×10^5 cells/ml in 6-well flat-bottomed tissue culture plates for 48 hours with 100 μg of 6 base N1A, N1B, N2A, N2B, N3A, N3B, N4A, N4B, N5A, N5B, N6A, N6B, N7A or N7B polynucleotides. Production of IL-1beta was determined in 100 μl of culture supernatant using a commercial ELISA (BioSource, Camarillo, Calif., USA) after 48 hours of incubation. Results are expressed as the “fold” (x) increase in IL-1beta production by treated DC compared to control cells.

Human dendritic cells [9] = experiment: CD86 levels at the DC cell surface (flow cytometry); conditions: 100 μg, 48 hours
Experimental: as §1
DC from individuals B and C were seeded in 1.0 ml at 1.0×10^5 cells/ml in 6-well flat-bottomed tissue culture plates for 48 hours with 100 μg of 6 base N1A, N1B, N2A, N2B, N3A, N3B, N4A, N4B, N5A, N5B, N6A, N6B, N7A or N7B polynucleotides. The level of CD86 at the cell surface was determined after 48 hours of incubation by flow cytometry using a PE-conjugated monoclonal antibody directed to CD86 (Serotec) and analyzed by CELLQuest Pro. Results are expressed as the percentage of CD86^hi DC following treatment.

[10] = +GM-CSF (500 units human recombinant)

Substance | IL-12 production by DC from the individual B (fold increase compared to untreated DC) (Human dendritic cells [1]; [10]) | IL-12 production by DC from the individual B (fold increase compared to untreated DC) (Human dendritic cells [1]; w/o GM-CSF) | IL-12 production by DC (fold increase compared to untreated DC) (Human dendritic cells [2]; DC isolated from individual A) | IL-12 production by DC (fold increase compared to untreated DC) (Human dendritic cells [2]; DC isolated from individual C) | IFN-gamma production by DC (fold increase compared to untreated DC) (Human dendritic cells [3]; DC isolated from individual A) | IFN-gamma production by DC (fold increase compared to untreated DC) (Human dendritic cells [3]; DC isolated from individual C) | The percentage of MHC-II^hi DC following treatment (Human dendritic cells [4]) | The percentage of CD40^hi DC following treatment (Human dendritic cells [5]; DC from individual C) | The percentage of CD80^hi DC following treatment (Human dendritic cells [6]; DC from individual B) | The percentage of CD80^hi DC following treatment (Human dendritic cells [6]; DC from individual C) | Percentage of DC showing a FCS > 500 units and a SSC > 400 units (Human dendritic cells [7]; DC isolated from individual A) | Percentage of DC showing a FCS > 500 units and a SSC > 400 units (Human dendritic cells [7]; DC isolated from individual C) | IL-1beta production by DC (fold increase compared to untreated DC) (Human dendritic cells [8]; DC isolated from individual A) | IL-1beta production by DC (fold increase compared to untreated DC) (Human dendritic cells [8]; DC isolated from individual C) | The percentage of CD86^hi DC following treatment (Human dendritic cells [9]; DC from individual C) | other results
5′GGGCGG3′ [N7A] (DNA, all phosphodiester, methylation of C not given here) | 11.7 fold | 9.6 fold | 1.0 fold | 0.9 fold | 1.0 fold | 1.0 fold | 21% | 23% | 23** % | 22** % | 8% | 30% | 1.1 fold | 1.0 fold | 34% | 
5′GTGTGT3′ [N1A] | 15.3 fold | 14.7 fold | 15.9 fold | 2.1 fold | 0.8 fold | 1.0 fold | 32** % | 24** % | 45** % | 41** % | 6% | 18% | 1.0 fold | 1.0 fold | 14% | IL-12 production by DC (fold increase compared to untreated DC) (Human dendritic cells [2]; DC isolated from individual B): 17.8 fold; IFN-gamma production by DC (fold increase compared to untreated DC) (Human dendritic cells [3]; DC isolated from individual B): 1.0 fold; The percentage of CD40^hi DC following treatment (Human dendritic cells [5]; DC from individual B): 21%; Percentage of DC showing a FCS > 500 units and a SSC > 400 units (Human dendritic cells [7]; DC isolated from individual B): 9%; IL-1beta production by DC (fold increase compared to untreated DC) (Human dendritic cells [8]; DC isolated from individual B): 1.2 fold; The percentage of CD86^hi DC following treatment (Human dendritic cells [9]; DC from individual B): 10%
